# Laboratory results: ChEMBL document CHEMBL1201862, “PubChem BioAssay data set” (2004)
# Active and inactive are the calls of the source.
# Experiments:
# [1] = target: Kallikrein-7 (Homo sapiens, UniProt P49862); assay: Fluorescence Intensity-based biochemical primary high throughput dose response assay to identify activators of kallikrein-7 (K7) zymogen.
# [2] = P. falciparum 3D7-ScDHODH growth inhibitors, dose response, SYBR Green, dry powder samples (AID 1159570); type: functional, cell-based;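 further: parasite growth measured after 72 hours of compound exposure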
# [3] = P. falciparum Dd2 growth inhibitors, dose response, SYBR Green, cherry-picked samples (AID 1159567); type: functional, cell-based
# [4] = HepG2 cell cytotoxicity, dose response, cytotoxicity control, plate reader, dry powder samples (AID 1159569); type: functional, cell-based;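 further: inhibitor potency with signal falling toward the positive control level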
# [5] = P. falciparum Dd2 growth inhibitors, dose response, SYBR Green, dry powder samples (AID 1159566); type: functional, cell-based;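 further: potency for growth inhibition with lower SYBR green DNA signal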
# [6] = P. falciparum ATP4 D1247Y mutant growth inhibitors, dose response, NITD609-resistant line, SYBR Green, dry powder (AID 1159571); type: functional, cell-based;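 further: parasites synchronized at ring stage by sorbitol before testing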
# [7] = target: Major prion protein (Homo sapiens, UniProt P04156); type: functional, cell-based
# [8] = cells
# [9] = cells; type: functional, cell-based
# [10] = target: T1, Nuclear receptor subfamily 0 group B member 1 (Homo sapiens, UniProt P51843); type: functional, cell-based;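 further: HEK293T cells transfected with SF-1 and DAX-1 plus StAR promoter luciferase reporter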
# T1 sequence (P51843 whole entry): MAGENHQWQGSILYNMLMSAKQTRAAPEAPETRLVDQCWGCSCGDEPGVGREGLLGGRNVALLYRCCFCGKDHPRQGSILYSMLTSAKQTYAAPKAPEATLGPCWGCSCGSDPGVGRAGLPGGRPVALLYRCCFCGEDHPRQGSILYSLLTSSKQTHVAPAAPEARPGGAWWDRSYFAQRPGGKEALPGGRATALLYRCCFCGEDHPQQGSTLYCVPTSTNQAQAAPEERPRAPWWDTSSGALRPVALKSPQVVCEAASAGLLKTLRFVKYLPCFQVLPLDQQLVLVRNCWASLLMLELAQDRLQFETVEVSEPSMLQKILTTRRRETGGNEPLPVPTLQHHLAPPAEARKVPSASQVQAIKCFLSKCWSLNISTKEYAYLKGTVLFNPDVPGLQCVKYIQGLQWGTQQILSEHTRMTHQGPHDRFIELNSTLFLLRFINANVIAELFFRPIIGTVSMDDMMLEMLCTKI
# [11] = MC4R antagonists, dose response, counter-screen for LGR2 antagonist project, cell-based, plate reader, cherry pick (AID 743444); type: functional;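 further: transfected HEK 293 cells stimulated with alpha-MSH peptide; potency of inhibitors of the alpha-MSH evoked signal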
# [12] = LGR2 antagonists, dose response, cell-based, HEK293, CRE-luciferase reporter, cherry pick, set 2 (AID 743343); type: functional;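 further: transfected cells were stimulated with diluted bursicon conditioned medium after compound addition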
# [13] = HEK293 cell cytotoxicity, dose response, cytotoxicity control, plate reader, cherry-picked samples (AID 743446); type: functional, cell-based
# [14] = target: T2, Probable nicotinate-nucleotide adenylyltransferase (Staphylococcus aureus (strain N315), UniProt P65502); type: functional, Staphylococcus aureus subsp. aureus N315;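 on IC50 Mean: confirmatory dose-response retesting of NadD inhibitor hits first found in an ultra-high-throughput screen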
# [15] = target: T2, Probable nicotinate-nucleotide adenylyltransferase; type: functional, Staphylococcus aureus subsp. aureus N315; settings: read-out: IC50_Mean
# [16] = target: T3, Long-chain-fatty-acid--AMP ligase FadD28 (Mycobacterium tuberculosis, UniProt P9WQ59); assay: Fluorescence polarization aasay to screen for inhibitors that compete for the binding of FadD28 to a bisubstrate Measured in Biochemical System Using Plate Reader - 2147-01_Inhibitor_Dose_CherryPick_Activity.; type: functional, Mycobacterium tuberculosis H37Rv
# T3 sequence (P9WQ59 whole entry): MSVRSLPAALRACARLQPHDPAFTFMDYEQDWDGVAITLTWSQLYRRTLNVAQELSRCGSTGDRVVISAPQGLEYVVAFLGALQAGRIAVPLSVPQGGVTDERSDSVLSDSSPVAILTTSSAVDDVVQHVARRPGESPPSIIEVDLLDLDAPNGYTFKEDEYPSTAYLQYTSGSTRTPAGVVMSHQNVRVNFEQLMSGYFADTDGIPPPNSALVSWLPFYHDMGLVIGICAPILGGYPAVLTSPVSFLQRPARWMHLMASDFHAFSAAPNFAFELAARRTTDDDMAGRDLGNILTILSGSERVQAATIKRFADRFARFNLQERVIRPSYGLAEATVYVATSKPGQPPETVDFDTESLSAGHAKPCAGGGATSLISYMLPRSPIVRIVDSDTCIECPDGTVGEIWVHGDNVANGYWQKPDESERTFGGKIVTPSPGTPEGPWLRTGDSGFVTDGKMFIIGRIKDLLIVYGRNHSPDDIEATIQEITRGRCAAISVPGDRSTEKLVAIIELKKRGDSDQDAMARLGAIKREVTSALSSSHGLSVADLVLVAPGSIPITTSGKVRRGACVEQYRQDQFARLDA
# [17] = cells; type: functional, cell-based; remark: listed apart in the source
# [18] = cells; type: functional, cell-based; remark: listed apart in the source
# [19] = Counterscreen for AddAB inhibitors: absorbance-based bacterial cell-based high throughput dose response assay for inhibitors of bacterial viability. [Related pubchem assays (depositor defined):AID435030, AID449728, AID449731, AID488942, AID488955, AID488956]; type: functional
# [20] = HepG2 cell cytotoxicity, dose response, cytotoxicity control for Shn3 inhibitor project, CellTiter-Glo, cherry-picked (AID 624134); type: functional, cell-based
# [21] = target: T4, Exodeoxyribonuclease V (Escherichia coli (strain K12), UniProt P04993+P07648+P08394); assay: E. coli RecBCD inhibitors, dose response, counter-screen for AddAB inhibitor project, absorbance, V66 E. coli, mutant T4 phage (AID 492957); type: functional, cell-based, Escherichia coli str. K-12 substr. MG1655
# T4 sequence (P04993 whole entry): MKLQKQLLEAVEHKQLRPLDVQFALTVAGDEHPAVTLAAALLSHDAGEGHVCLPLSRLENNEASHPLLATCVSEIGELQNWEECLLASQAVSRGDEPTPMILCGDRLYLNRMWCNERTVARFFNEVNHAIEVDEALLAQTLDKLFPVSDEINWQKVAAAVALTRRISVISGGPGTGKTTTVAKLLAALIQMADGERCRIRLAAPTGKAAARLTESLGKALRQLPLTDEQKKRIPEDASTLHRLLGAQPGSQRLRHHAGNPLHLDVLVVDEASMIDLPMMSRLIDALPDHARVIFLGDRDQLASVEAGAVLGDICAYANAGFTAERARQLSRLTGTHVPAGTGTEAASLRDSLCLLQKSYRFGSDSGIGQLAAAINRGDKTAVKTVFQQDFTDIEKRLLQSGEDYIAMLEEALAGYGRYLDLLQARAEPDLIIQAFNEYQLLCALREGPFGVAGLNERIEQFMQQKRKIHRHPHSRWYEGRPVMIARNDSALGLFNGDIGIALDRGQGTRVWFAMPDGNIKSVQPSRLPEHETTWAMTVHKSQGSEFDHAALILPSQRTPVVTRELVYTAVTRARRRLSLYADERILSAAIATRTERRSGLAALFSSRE
# T4 sequence (P07648 whole entry): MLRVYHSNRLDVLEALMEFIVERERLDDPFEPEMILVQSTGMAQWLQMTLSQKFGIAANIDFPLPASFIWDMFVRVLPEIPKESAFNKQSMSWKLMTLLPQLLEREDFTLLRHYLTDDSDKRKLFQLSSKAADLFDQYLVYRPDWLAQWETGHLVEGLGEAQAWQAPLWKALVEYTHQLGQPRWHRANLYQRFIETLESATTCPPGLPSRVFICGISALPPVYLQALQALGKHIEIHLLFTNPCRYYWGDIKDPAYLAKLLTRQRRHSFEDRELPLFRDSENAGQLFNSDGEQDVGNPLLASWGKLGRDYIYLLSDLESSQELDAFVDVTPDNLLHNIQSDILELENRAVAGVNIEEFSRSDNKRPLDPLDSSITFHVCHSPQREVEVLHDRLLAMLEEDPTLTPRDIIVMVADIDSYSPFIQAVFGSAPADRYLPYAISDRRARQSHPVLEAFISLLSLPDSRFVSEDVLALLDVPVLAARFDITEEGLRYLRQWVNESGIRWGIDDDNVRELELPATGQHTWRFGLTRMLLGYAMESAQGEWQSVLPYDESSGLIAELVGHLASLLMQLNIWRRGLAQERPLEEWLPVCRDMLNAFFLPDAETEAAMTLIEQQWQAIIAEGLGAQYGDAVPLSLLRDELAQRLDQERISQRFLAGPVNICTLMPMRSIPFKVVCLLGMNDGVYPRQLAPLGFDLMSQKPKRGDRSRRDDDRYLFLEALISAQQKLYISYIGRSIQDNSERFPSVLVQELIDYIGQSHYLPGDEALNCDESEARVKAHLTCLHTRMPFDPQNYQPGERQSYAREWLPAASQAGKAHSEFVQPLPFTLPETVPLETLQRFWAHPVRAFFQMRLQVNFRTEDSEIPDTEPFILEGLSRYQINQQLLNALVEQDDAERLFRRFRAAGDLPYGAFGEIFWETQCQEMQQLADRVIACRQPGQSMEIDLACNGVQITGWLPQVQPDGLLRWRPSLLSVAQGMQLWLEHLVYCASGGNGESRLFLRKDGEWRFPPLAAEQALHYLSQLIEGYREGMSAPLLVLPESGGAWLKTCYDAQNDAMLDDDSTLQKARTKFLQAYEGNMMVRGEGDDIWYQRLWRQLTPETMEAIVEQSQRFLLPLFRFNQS
# T4 sequence (P08394 whole entry): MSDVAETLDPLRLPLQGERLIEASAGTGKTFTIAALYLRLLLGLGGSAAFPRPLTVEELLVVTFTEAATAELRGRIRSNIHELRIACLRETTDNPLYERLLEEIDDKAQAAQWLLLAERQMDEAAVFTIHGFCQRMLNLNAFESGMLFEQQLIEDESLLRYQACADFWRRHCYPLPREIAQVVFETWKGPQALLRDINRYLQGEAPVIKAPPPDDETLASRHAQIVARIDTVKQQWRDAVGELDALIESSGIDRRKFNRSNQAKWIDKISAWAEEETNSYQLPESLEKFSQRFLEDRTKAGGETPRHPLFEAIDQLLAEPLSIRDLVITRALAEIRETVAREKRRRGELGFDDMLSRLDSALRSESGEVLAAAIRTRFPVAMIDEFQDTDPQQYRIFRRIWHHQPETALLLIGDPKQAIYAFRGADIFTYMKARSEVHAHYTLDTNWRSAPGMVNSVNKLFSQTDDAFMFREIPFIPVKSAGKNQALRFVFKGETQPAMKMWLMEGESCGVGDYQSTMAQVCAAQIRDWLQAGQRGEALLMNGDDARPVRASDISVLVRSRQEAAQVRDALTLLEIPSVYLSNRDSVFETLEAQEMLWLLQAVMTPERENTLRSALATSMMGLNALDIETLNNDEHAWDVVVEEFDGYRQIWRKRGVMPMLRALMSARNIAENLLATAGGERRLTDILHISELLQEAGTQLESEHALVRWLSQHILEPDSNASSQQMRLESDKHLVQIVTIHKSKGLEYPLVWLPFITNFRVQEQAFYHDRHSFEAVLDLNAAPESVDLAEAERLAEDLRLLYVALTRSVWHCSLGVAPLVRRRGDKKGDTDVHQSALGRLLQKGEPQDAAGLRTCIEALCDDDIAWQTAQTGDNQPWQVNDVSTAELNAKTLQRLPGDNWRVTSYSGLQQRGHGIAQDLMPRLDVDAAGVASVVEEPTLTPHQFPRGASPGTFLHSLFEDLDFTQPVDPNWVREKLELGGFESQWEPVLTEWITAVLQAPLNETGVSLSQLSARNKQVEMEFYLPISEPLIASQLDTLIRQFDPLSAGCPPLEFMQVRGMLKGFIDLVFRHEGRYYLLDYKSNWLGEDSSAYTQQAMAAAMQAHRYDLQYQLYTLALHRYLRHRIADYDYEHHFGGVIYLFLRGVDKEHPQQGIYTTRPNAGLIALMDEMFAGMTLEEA
# [22] = target: Photoreceptor-specific nuclear receptor (Homo sapiens, UniProt Q9Y5X4); type: functional, cell-based;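 further: CHO-S cells with Gal4-NCOR and VP16-NR2E3 two-hybrid luciferase reporter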
# [23] = Shn3 3'UTR reporter inhibitors, dose response, cell-based, Clone20 osteoblasts, firefly luciferase, cherry-picked (AID 624132); type: functional;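 further: firefly luciferase luminescence from reporter carrying the Shn3 3'UTR in osteoblasts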
smiles,measurement,setting,value
O=c1c2cc(N3CCOCC3)ccc2[nH]c(=S)n1CCCN1CCCCC1,EC50,[1],29.7 µM (inactive)
Cc1oc2c(c(C)cc3oc(=O)c(CC(=O)N[C@@H](CCCNC(N)=O)C(=O)O)c(C)c32)c1C,EC50,[1],69.3 µM (inactive)
O=C(Nc1cccc(F)c1)N1CCCCN2[C@@H](CO)[C@H](c3ccc(C#Cc4cccnc4)cc3)[C@@H]2C1,AC50,[2],247 nM (active)
same,AC50,[3],606 nM (active)
same,AC50,[4],28.4 µM (active)
same,AC50,[5],368 nM (active)
same,AC50,[6],425 nM (active)
COc1ccc(S(=O)(=O)N2CCOCC2)cc1NC(=O)CSc1ncnc2ccccc12,IC50,[7],2.66 µM (active)
same,IC50,[8],> 138 µM (inactive)
Cc1cc(C(=O)CSc2nnc(N)s2)c(C)n1Cc1cccs1,IC50,[9],> 67.5 µM (inactive)
same,IC50,[10],> 278 nM (active)
same,AC50,[11],4.27 µM (active)
same,AC50,[12],3.93 µM (active)
same,AC50,[13],> 52 µM (inactive)
Cc1ccc(NCc2nnc(SCC(=O)c3ccccc3)n2Cc2ccco2)c(C)c1,IC50,[14],12.1 µM (active)
same,IC50,[15],23 µM (active)
COc1ccc(OC)c(C2NC(=O)N(C)C(C)=C2C(=O)OCc2ccccc2)c1 (stereo not given),IC50,[7],6.04 µM (active)
same,IC50,[8],> 138 µM (inactive)
CCc1c(O)n(-c2ccccc2)c(SCC(=O)Nc2nc3ccccc3s2)nc1=O,AC50,[16],> 100 µM (inactive)
COc1ccc(NC(=O)c2ccc(S(=O)(=O)N3CC(C)CC(C)C3)cc2)cc1S(N)(=O)=O (stereo not given),EC50,[1],14.7 µM (inactive)
c1ccc(N/N=C(\Cc2ncc[nH]2)c2ccccc2)cc1,EC50,[17],> 29.9 µM (inactive)
same,IC50,[18],> 29.9 µM (inactive)
O=C(COC(=O)c1cccc(NS(=O)(=O)c2ccc(F)c(F)c2)c1)NC(=O)NC1CCCCC1,AC50,[16],19.9 µM (active)
COc1ccc(-c2nc3c(C)cc(Br)cn3c2Cc2cccc(Cl)c2)cc1OC,IC50,[7],7.52 µM (active)
same,IC50,[8],> 138 µM (inactive)
c1ccc(-c2cc(CSc3nc4ccccc4[nH]3)on2)cc1,IC50,[19],> 119 µM (inactive)
same,AC50,[20],58.3 µM (active)
same,IC50,[21],> 119 µM (inactive)
same,IC50,[22],4.61 µM (active)
same,AC50,[23],3.76 µM (active)
